Reference: publication PMC6389993, “Quercetin and its metabolite isorhamnetin promote glucose uptake through different signalling pathways in myotubes” (Scientific Reports, 2019)
Like-named read-outs stand apart in the source and are kept apart here.

Experiments:
PI3K = assay: Phosphorylation of PI3K in L6 myotubes (western blot); type: cell-based, rat; details: 15 min
Method: (§1) For in vitro cell culture experiments, after serum starvation for 18 h, myotubes were treated with various concentrations of quercetin or isorhamnetin (0.1–10 nM) for 15 min; DMSO (final 0.1%) was used as a vehicle control. As positive controls, 100 nM insulin, 1 mM AICAR, 10 nM leptin, or 100 ng/mL IL-15 were used for insulin, AMPK, JAK2/STAT, or JAK3/STAT signalling pathways, respectively. Cells were treated with insulin or AICAR for 15 min, leptin for 60 min, or IL-15 for 24 h. Whole protein and plasma membrane fractions were prepared from myotubes, as previously described. For in vivo experiment, plasma membrane fraction and tissue lysate of soleus muscle were prepared.
(§2) Translocation of GLUT4 to the plasma membrane, as well as expression and phosphorylation levels of GLUT4-related regulators were estimated by western blot analysis. Briefly, equal amounts of proteins were separated by sodium dodecyl sulfate-polyacrylamide gel electrophoresis (SDS-PAGE). […] Specific immune complexes were developed using ImmunoStar® LD and detected with an ATTO Light-Capture II Western Blotting Detection System. Individual band density was calculated by ImageJ and normalized to the control.

[1] = Plasma concentrations of quercetin and isorhamnetin in mice after oral EMIQ (HPLC); type: in vivo; details: male, ICR, mouse, HPLC without deconjugation, read-out: Concentration in plasma, Aglycone form
Method: All animal experiments were performed according to the guidelines for animal experiments at Kobe University Animal Experimentation Regulation and approved by the Institutional Animal Care and Use Committed of Kobe University (Permission 29-05-02). Male ICR mice (5 weeks old, n = 20) were obtained from Japan SLC (Shizuoka, Japan) and maintained at constant temperature (23 ± 2 °C) with a 12 h light-dark cycle (lights on at 8:00 am). Mice were subsequently randomly divided into four groups of five each, and acclimatized for 1 week with free access to tap water and a laboratory-purified diet (3.850 kcal/g diet) consisting of 76% carbohydrate, 15% protein and 9% fat) (Research Diets, Tokyo, Japan). For analysis of concentrations of quercetin and isorhamnetin in the plasma and GLUT4 translocation in the muscle, mice were orally administrated EMIQ at 10, 100, or 1000 mg/kg body weight, or water as a vehicle control after 18 h fasting. The mice were sacrificed 90 min after the administration under anesthesia using sodium pentobarbital and seroflurane, and euthanized by exsanguination from cardiac puncture. Plasma and soleus muscle were collected, and kept at -80 °C until use.
To determine the levels of quercetin and isorhamnetin after administration of EMIQ, the obtained plasma were analyzed using HPLC (UV 370 nm) with or without deconjugation treatment using glucuronidase/sulfatase[16]. Briefly, an aliquot of 250 μl of plasma was mixed with 50 μl of 20% (w/v) ascorbic acid and incubated with 125 μl of 75 mM potassium phosphate buffer (pH 6.8) with or without 500 U/sample β-glucronidase and 125 μl of 200 mM sodium acetate buffer (pH 5.0) with or without 10 U/sample sulfatase for 2 h at 37 °C after adding 2 μl of 1 mM nobiletin as an internal standard. To separate quercetin and isorhamnetin, mixture was applied on a Sep-Pak C18 1 cc Vac Cartridge and eluted with 2 ml 95% (v/v) methanol. After eluate was dried by evaporation, dried material was dissolved in 50 μl of 50% (v/v) methanol and applied to HPLC. HPLC was performed using a SHIMADZU LabSolutions system (SHIMADZU, Kyoto, Japan) with SPD-M20A diode array detector. HPLC separation was done with a gradient system using 0.02% aqueous phosphoric acid as mobile phase A and acetonitrile as mobile phase B with a Cadenza CL-C18 column (φ 4.6 mm × 250 mm, Kyoto, Japan) at a flow rate of 1.0 ml/min. The gradient program was 0–13 min, 20% B, 13–33 min, 50–80% B, 33–43 min, 100% B, 43–60 min, 20% B.

L6 myotubes = assay: Enzymatic 2DG glucose uptake assay in L6 myotubes; type: cell-based, rat; details: 4 h; for glucose uptake, shape of concentration dependence: 0.01–10^4 nM
Method: In vitro cultured cell experiments were conducted according to a previously described protocol[6],[14]. Briefly, L6 myoblasts derived from rat skeletal muscle and of less than 40 passages were maintained in MEM supplemented with 10% foetal bovine serum (FBS) and antibiotics (100 U/ml penicillin and 100 μg/ml streptomycin) at 37 °C under a humidified atmosphere condition of 5% CO2 and 95% air. In each experiment, cells (2.2 × 10^4 cells/ml) were seeded into 96-well plates or 60-mm dishes for induction of differentiation into mature myotubes. After reaching confluence, cells were supplemented with differentiation medium containing 2% FBS and the same antibiotics for 7 days. Cells were used for each experiment after morphological analysis of differentiation status using phase-contrast microscopy. To explore the contribution of CaMKKβ or intracellular-free calcium ions in quercetin- and isorhamnetin-stimulated GLUT4 translocation, L6 cells were incubated in the presence or absence of 10 μM STO-609 and 25 μM […], respectively, for 30 min prior to treatment with either quercetin or isorhamnetin.
After serum starvation by incubating L6 myotubes in MEM with 0.2% BSA for 18 h, cells were treated with quercetin and isorhamnetin at the specified concentration (0.01 nM–10 μM) for 4 h in 0.2% BSA-containing medium. DMSO and insulin (100 nM) were used as a vehicle control and positive control, respectively. Glucose uptake was measured by an enzymatic 2DG uptake assay using myotubes on a 96-well plate as previously described.

LKB1 = assay: Phosphorylation of LKB1 in L6 myotubes (western blot); type: cell-based, rat; details: 0.1–10 nM, 15 min
Method: as §1, §2

[2] = 0.01 nM to 1 nM, compared with vehicle (DMSO)

COc1cc(-c2oc3cc(O)cc(O)c3c(=O)c2O)ccc1O [isorhamnetin, 3′-O-methyl quercetin]
phosphorylation of PI3K (PI3K; 0.1 nM): increased PI3K phosphorylation
concentration at 90 min ([1]; in vivo, 90 min after oral EMIQ 1000 mg/kg body weight): 131 ± 51.5 nM
glucose uptake (L6 myotubes; [2]): increased glucose uptake in a dose-dependent manner
glucose uptake (L6 myotubes; 1 nM): significant increase
glucose uptake (L6 myotubes; 10 nM): decreased glucose uptake
glucose uptake (L6 myotubes; 100 nM): decreased glucose uptake
glucose uptake (L6 myotubes; 1 μM): significant increase
glucose uptake (L6 myotubes; 10 μM): significant increase
glucose uptake, shape of concentration dependence (L6 myotubes): biphasic increase in glucose uptake
LKB1 phosphorylation (LKB1): neither quercetin nor isorhamnetin increased LKB1 phosphorylation

O=c1c(O)c(-c2ccc(O)c(O)c2)oc2cc(O)cc(O)c12 [quercetin, 3,3′,4′,5,7-pentahydroxy flavone]
phosphorylation of PI3K (PI3K; 0.1–10 nM): significantly increased phosphorylation of PI3K
concentration at 90 min ([1]; plasma, oral, 90 min after oral EMIQ 10 mg/kg body weight): 4.95 ± 0.82 nM
concentration at 90 min ([1]; plasma, oral, 90 min after oral EMIQ 100 mg/kg body weight): 6.8 ± 2 nM
concentration at 90 min ([1]; plasma, oral, 90 min after oral EMIQ 1000 mg/kg body weight): 138 ± 45.1 nM
glucose uptake (L6 myotubes; [2]): increased glucose uptake in a dose-dependent manner
glucose uptake (L6 myotubes; 0.1 nM): significant increase
glucose uptake (L6 myotubes; 1 nM): significant increase
glucose uptake (L6 myotubes; 10 nM): decreased glucose uptake
glucose uptake (L6 myotubes; 100 nM): decreased glucose uptake
glucose uptake (L6 myotubes; 1 μM): significant increase
glucose uptake (L6 myotubes; 10 μM): significant increase
glucose uptake, shape of concentration dependence (L6 myotubes): biphasic increase in glucose uptake
LKB1 phosphorylation (LKB1): neither quercetin nor isorhamnetin increased LKB1 phosphorylation
